Experiment [1] deals with Cyclin-dependent kinase 5 (Homo sapiens, UniProt Q00535). The experiment is described as follows: Inhibition of CDK5 (unknown origin).
For experiment [2], the target named is Cyclin-dependent kinase 7 (Homo sapiens, UniProt P50613). As to the kind of experiment: Inhibition of CDK7 (unknown origin).

Our source for the IC50 values is BindingDB's records for PubMed 35814933 (Nankai University, 2022).

Cyclin-dependent kinase 5, sequence (Q00535 whole entry): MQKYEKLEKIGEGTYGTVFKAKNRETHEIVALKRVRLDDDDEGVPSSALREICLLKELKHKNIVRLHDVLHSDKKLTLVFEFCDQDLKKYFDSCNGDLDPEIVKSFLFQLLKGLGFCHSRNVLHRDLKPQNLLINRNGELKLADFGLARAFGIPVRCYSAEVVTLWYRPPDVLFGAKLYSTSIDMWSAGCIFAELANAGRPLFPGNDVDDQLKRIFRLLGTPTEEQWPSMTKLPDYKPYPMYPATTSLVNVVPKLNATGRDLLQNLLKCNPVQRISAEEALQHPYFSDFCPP
Cyclin-dependent kinase 7, sequence (P50613 whole entry): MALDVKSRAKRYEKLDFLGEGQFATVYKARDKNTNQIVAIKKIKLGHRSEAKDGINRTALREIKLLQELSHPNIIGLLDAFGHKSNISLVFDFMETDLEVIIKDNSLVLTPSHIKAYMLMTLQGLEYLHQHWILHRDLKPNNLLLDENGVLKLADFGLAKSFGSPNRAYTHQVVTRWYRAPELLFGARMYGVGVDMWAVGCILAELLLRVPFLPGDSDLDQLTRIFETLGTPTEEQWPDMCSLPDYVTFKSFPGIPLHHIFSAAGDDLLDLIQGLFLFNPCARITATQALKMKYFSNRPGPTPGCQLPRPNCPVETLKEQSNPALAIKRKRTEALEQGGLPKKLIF

Take `CC[C@H](Nc1nc(NCc2cnc(C)cc2C)c2ncn(C(C)C)c2n1)[C@@H](C)O` [US8592581, 1]: the concentration for half-maximal inhibition (IC50) – broadly, the concentration needed to halve the response being measured – is 21 nM in experiment [1] and 193 nM in experiment [2].
